Results taken from patent US10758631B2, “Solid cyanine dyes” (LI-COR, Inc., priority 2017, dated 2020).

Assay: Mouse urine: fluorescence of extracted urine after injection
Assay type: in vivo
Conditions: mice, urine extracted with acetonitrile:methanol mix, imaged on Odyssey CLx imager
Excerpt: The urine is extracted with an acetonitrile:methanol mix and imaged on an Odyssey CLx imager (LI-COR Biosciences).

- fluorescent signal in urine: No fluorescent signal
Structure (SMILES): CC1(C)C(/C=C/C=C/C=C/C=C2\N(CCCCS(=O)(=O)O)c3ccc4ccccc4c3C2(C)C)=[N+](CCCCS(=O)(=O)[O-])c2ccc3ccccc3c21 [ICG, indocyanine green]
